Data from US9327025B2, “Enriched 10-boron composition for cancer therapy and a method of synthesizing the same” (priority 2012, dated 2016).
Read-outs that look alike come from different tables or passages of the source.

How the values were obtained:
[1] = system: MDA-MB241 cell line (malignant breast cells); conditions: 24 hours
Experimental: MTT assay method was applied for evaluating the effects of Boron complex on MDA-MB241 cell line (malignant breast cells) in in vitro environment.
This is due to the fact that since food composition was used in the synthesis of the drug, tumor cells think that they are provided with food compostions. But after a while the number of cells will decrease by the drug. For different concentrations of Boron including 5 mg, 10 mg, 25 mg, 50 mg and 100 mg, these decreases are equal to 80, 50, 64, 79, and 36. After 48 hours similar results with little differences have been observed with 24 hours time interval.

[2] = cancerous mice; in vitro and in vivo tests
Description: In this research, a new smart drug, Enriched Boron-10 Calcium Fructo Borate (E^10BCFB), was investigated for using in cancer cells treatment in BNCT methods. […] E^10BCFB is in fact an artificial Calcium Fructo-Borate which is synthesized chemically with 10-Boron.

[3] = system: breast cancer cells MDA-MB-231

Enriched 10-Boron Calcium Fructo Borate [E^10BCFB]
concentration ratio of tumor to the 10-Boron concentration in the blood (3 hours after injection of 41.1 mg complex per 30 gram animal weight): about 4.5
concentration of 10-Boron in the blood (3 hours after intraperitoneal injection of 41.1 mg complex per 30 gram animal weight, blood): about 6.1 ppm
accumulation of 10-Boron in tumor cells (3 hours after intraperitoneal injection of 41.1 mg complex per 30 gram animal weight, tumor): about 27 ppm
decrease of the number of cells (MTT) ([1]; concentration of Boron 5 mg): 80
decrease of the number of cells (MTT) ([1]; concentration of Boron 10 mg): 50
decrease of the number of cells (MTT) ([1]; concentration of Boron 25 mg): 64
decrease of the number of cells (MTT) ([1]; concentration of Boron 50 mg): 79
decrease of the number of cells (MTT) ([1]; concentration of Boron 100 mg): 36
safety of the drug [2]: safe
growth of breast cancer cells ([3]; MDA-MB-231): prevents the growth of breast cancer cells
Caspase-3 activity ([3]; tumor cells treated with the drug): increases the Caspase-3 activity
